How the values were obtained:
[1] = test system: stratum corneum moisture content of the skin (forearm); test: Evaluation test of moisture retention effect upon single application (esterified products, oils, glycerol applied neat); type: in vivo, human
Description: In the present invention, the moisture retention effect of the esterified product, namely the improvement effect on the moisture retention function of the skin, was evaluated based on the change in the stratum corneum moisture content of the skin before and after application of the esterified product. Measurement of the stratum corneum moisture content was performed using a stratum corneum moisture content measuring device (device name: SKICON-200), manufactured by IBS Co., Ltd. This stratum corneum moisture content measuring device is a device that is widely used for measuring the moisturestate of the stratum corneum, and is a device that measures the electrical conductivity (μS) of the stratum corneum. The larger the skin moisture content, the higher the electrical conductivity of the stratum corneum becomes. Accordingly, the electrical conductivity (μS) measured using the stratum corneum moisture content measuring device was deemed to indicate the stratum corneum moisture content. The skin moisture retention effect of each test sample was evaluated by applying the test sample directly to washed skin, and then measuring the change in the skin stratum corneum moisture content after wiping the test sample off the skin using a cotton swab soaked in hexane. The skin stratum corneum moisture content measurement test was conducted on a plurality of panelists in the season from autumn to spring when the skin is prone to dryness. Further, in order to remove the effects of room temperature and humidity on the measurement results, the tests were performed in a room in which the room temperature had been adjusted to 18 to 22° C. and the humidity had been adjusted to 40 to 55% RH. Specifically, first, the forearm of the person was washed with soap, and the person was then held for 30 minutes in a room in which the room temperature and the humidity had been controlled within the above ranges to acclimatize the skin of the forearm to the measurement environment, thus completing preparations for the initial conditions for measurement. […] Subsequently, 40 μL of the test sample being evaluated was applied uniformly to the square measurement region of the forearm. Sixty minutes after the application, a cotton swab that had been immersed in hexane was used to wipe off the test sample, and 30 minutes after the test sample had been wiped off, the stratum corneum moisture content of the wiped region of the skin (the stratum corneum moisture content upon test completion) was measured. Further, when evaluating the moisture retention effect of the test sample, in order to consider and subtract the change in the state of the skin during the measurement period, the stratum corneum moisture content of a portion of the skin to which the sample had not been applied was also measured prior to test commencement and upon test completion, and the change in the stratum corneum moisture content of this uncoated portion was calculated. A moisture retention effect value (μS) was determined from the measured values for the skin stratum corneum moisture content based on the formulas below. The moisture retention effect value (μS) for each test sample was calculated as the average value for the moisture retention effect values (μS) across five panelists. […] Based on the moisture retention effect value (μS) for each test sample, the moisture retention effect of each test sample was evaluated using the criteria in Table 43. […] Using various commercially available oils and glycerol, the <Evaluation of moisture retention upon single application> described above was conducted to ascertain the moisture retention effect. […] The glycerol of Comparative Example 21 is a typical aqueous moisturizer, and is widely used as a moisturizer. […] With the exception of changing the removal solvent from hexane to water, the evaluation conditions were the same as those described above in the <Evaluation of moisture retention upon single application>.

[2] = test system: stratum corneum moisture content of the skin (forearm); test: as above; type: in vivo, human; conditions: 60 minutes after application, glycerol still applied to the skin surface, prior to removal using water
[3] = esterified product applied neat, 40 μL on 3 cm x 3 cm forearm region, wiped off with hexane after 60 minutes, measured 30 minutes later, average of five panelists
[4] = single application of commercially available oil or glycerol to skin, measured after removal (hexane swab; water swab for glycerol)
[5] = single application of commercially available oil or glycerol, class from moisture retention effect value
[6] = esterified product applied neat, 40 μL on forearm, wiped off with hexane after 60 minutes, measured 30 minutes later, five panelists

Compound	Moisture retention effect value [1, 3] [μS]	Moisture retention effect value [1, 4] [μS]	Moisture retention evaluation result [1, 5]	Moisture retention effect value ([1]; removal after 60 minutes with cotton swab immersed in water rather than hexane, measured 30 minutes later) [μS]	increase in the electrical conductivity that corresponds with the moisture retention effect value [2] [μS]	Moisture retention evaluation result [1, 6]
CC(C)CCCCCCCCCCCCCCC(=O)OCC(C)C [Comparative Example 9, isobutyl isostearate]	47	–	–	–	–	–
CCCCC(CC)C(=O)OCC(COC(=O)C(CC)CCCC)OC(=O)C(CC)CCCC (centres unmarked) [Comparative Example 14, glyceryl tri(2-ethylhexanoate)]	–	32	e1 (less than 40)	–	–	–
OCC(O)CO [Comparative Example 21, glycerol]	–	8	e1 (less than 40)	8	477	–
caprate ester of ditrimethylolpropane [Example 3]	70	–	–	–	–	a1 (70 or greater)
caprylate ester of ditrimethylolpropane [Example 2]	87	–	–	–	–	a1 (70 or greater)

Source: patent publication US11752077B2, “Oily moisturizer and topical skin composition containing same” (The Nisshin OilliO Group, Ltd., priority 2017, dated 2023)
